From PubChem BioAssay AID2823 (Broad Institute, 2010)
Active and inactive are the calls of the source. No rule for the calls is given here.

Each compound was assayed against RanGTP-importin-beta complex (human Ran / KPNB1) (assay: Ran–importin-beta interaction inhibitors, confirmation, biochemical, FRET, CFP/YFP, cell-free homogeneous (AID 2823)). Settings: CFP-Ran/YFP-importin-beta FRET ratio.
With C/C(N)=C(/C#N)C(=O)COc1ncnc2ccccc12 the IC50 was > 50 µM (inactive). In the case of N#Cc1c(/N=C/c2ccc(O)cc2O)sc2c1C1CCN2CC1, the IC50 is reported as > 50 µM (inactive). With CCN1CCc2c(sc(NC(=O)c3ccc(S(=O)(=O)N4CC(C)OC(C)C4)cc3)c2C(N)=O)C1 (stereo unspecified) the IC50 was > 50 µM (inactive). Nc1c(C(=O)NC2CCCC2)c2nc3ccccc3nc2n1/N=C/c1ccco1 was tested, and the IC50 was 14.3 µM. In the case of O=[N+]([O-])c1ccc(CNC2CCCc3ccccc32)cc1 (stereo unspecified), the IC50 is reported as > 50 µM (inactive). In the case of Nc1nc(CSc2nnnn2-c2ccc(Cl)cc2)nc(N2CCOCC2)n1, the IC50 is reported as > 50 µM (inactive). COc1ccc(C(=O)Nc2sc3c(c2C#N)CCN(C(C)=O)C3)cc1 was tested, and the IC50 was > 50 µM (inactive). With CC1=NC(Nc2nc(C)c3ccccc3n2)=NC(C)(C)C1 the IC50 was > 50 µM (inactive). For CCCNS(=O)(=O)c1ccc2c(c1)CCCN2C(C)=O, the IC50 was > 50 µM (inactive). With COc1cc(-c2nc3cnccn3c2Nc2ccc(C(C)C)cc2)ccc1O the IC50 was > 50 µM (inactive). COc1ccc(OC)c(Nc2c3ccccc3nc3ccccc23)c1 was tested, and the IC50 was > 50 µM (inactive). Work on C=CCN1C=CC(=CC=C(C#N)C#N)C=C1 yielded an IC50 of 29.1 µM. With Cc1cc(C(=O)N/N=C2\CC(=O)CC(C)(C)C2)n[nH]1 the IC50 was > 50 µM (inactive). In the case of COc1ccccc1C1CC(c2ccc(Cl)cc2)Nc2nc(N)nn21 (stereo unspecified), the IC50 is reported as > 50 µM (inactive). COC(=O)C1=C(C)NC2=C(C(=O)CCC2)C1c1cccc(C)n1 (stereo unspecified) showed an IC50 of 25.5 µM. N=c1c(S(=O)(=O)c2ccc(Cl)cc2)cc2c(=O)n3ccccc3nc2n1Cc1cccnc1 was tested, and the IC50 was > 50 µM (inactive). In the case of Oc1cccc(Nc2c3ccccc3nc3ccccc23)c1, the IC50 is reported as > 50 µM (inactive). For CCOc1ccc(NC(=O)CN2C(=O)COc3ccc(Cl)cc32)cc1, the IC50 was > 50 µM (inactive). With O=C(O)c1ccccc1P(=O)(c1ccccc1)c1ccccc1 the IC50 was > 50 µM (inactive). In the case of COC(=O)c1ccc(NC(=O)C(=O)N2CCN(C(=S)Nc3ccccc3OC)CC2)cc1, the IC50 is reported as > 50 µM (inactive). Cc1c(C)c2cc(Cl)c(O)c(CN(C)C)c2oc1=O showed an IC50 of 25.2 µM. For CCOc1ccc(N2C(=O)C3C4C=CC(CC4)C3C2=O)c([N+](=O)[O-])c1 (stereo unspecified), the IC50 was > 50 µM (inactive). With CCOC(=O)C/C(=N\Nc1ncnc2ccccc12)c1ccccc1 the IC50 was > 50 µM (inactive). In the case of CCC(=O)Nc1cccc(NC(=S)NC(=O)c2cccs2)c1, the IC50 is reported as > 50 µM (inactive). CCN1C(=O)C2(C(C#N)=C(N)Oc3n[nH]c(C(C)C)c32)c2ccccc21 (stereo unspecified) was tested, and the IC50 was > 50 µM (inactive). In the case of Cc1c(NC2=CC(=O)CCC2)c(=O)n(-c2ccccc2)n1C, the IC50 is reported as > 50 µM (inactive). CCN1CCN(Cc2ccc(NC(=O)c3ccc(C)c(/C=C/c4cnc(Nc5cc(N6CCNCC6)nc(C)n5)cn4)c3)cc2C(F)(F)F)CC1 showed an IC50 of 19.5 µM. With CN(C)S(=O)(=O)c1cccc(NC(=O)CNC2CCCCC2)c1 the IC50 was > 50 µM (inactive). For Cc1ccccc1-n1cnc2cc(NCc3cccs3)ccc21, the IC50 was > 50 µM (inactive). With CSc1nc(-c2ccc(N(C)C)cc2)c(C#N)c(=O)n1C the IC50 was > 50 µM (inactive). In the case of CCN1/C(=C2\SC(=S)N(Cc3ccccc3)C2=O)Sc2ccccc21, the IC50 is reported as > 50 µM (inactive). In the case of CCOC(=O)c1c(NC(=O)Cc2ccccc2)sc2c1CCN(CC)C2, the IC50 is reported as > 50 µM (inactive). In the case of Cc1cc(S(=O)(=O)N2CCN(c3c(C)cccc3C)CC2)ccc1F, the IC50 is reported as > 50 µM (inactive). In the case of CCc1ccc(C(=O)c2cc3ccc(O)cc3oc2=O)cc1, the IC50 is reported as 11.7 µM. CC1CC(=O)N(CC(=O)Nc2cccc(Cl)c2)c2ccccc2S1(=O)=O (stereo unspecified) was tested, and the IC50 was > 50 µM (inactive). For CN(C)/C=N/c1nc2nccc(-c3cccs3)n2n1, the IC50 was 38.5 µM. With CCOC(=O)CNc1ncc([N+](=O)[O-])cc1C#N the IC50 was > 50 µM (inactive). With Cc1cc2c(c(=O)n1C1CC1)C(c1cccc(Cl)c1)C(C#N)=C(N)O2 (stereo unspecified) the IC50 was > 50 µM (inactive). CCOC(=O)c1c(NC(=O)c2cccc(N3C(=O)CCC3=O)c2)sc2c1CCN(CC)C2 was tested, and the IC50 was > 50 µM (inactive). With Cc1ccc(S(=O)(=O)N(C)Cc2ccc(C(=O)N/N=C3\CC(=O)CC(C)(C)C3)cc2)cc1 the IC50 was > 50 µM (inactive). c1c2c(cc3sc(N4CCOCC4)nc13)OCCO2 was tested, and the IC50 was > 50 µM (inactive). N#C/C(=C/c1ccc(N2CCOCC2)o1)C(=O)N1CCOCC1 showed an IC50 of 4.46 µM. With Cc1cccc2cc(C#N)c(NCCNC(=S)NCCCN3CCOCC3)nc12 the IC50 was 39.6 µM. In the case of O=C(O)C1C2CCC(C2)C1C(=O)NCCc1ccc(F)cc1 (stereo unspecified), the IC50 is reported as > 50 µM (inactive). Cc1ccc(S(=O)(=O)NC(C(=O)Oc2ccc3ccc(=O)oc3c2)c2ccccc2)cc1 (stereo unspecified) showed an IC50 of 24.8 µM. O=c1nc(-c2ccccc2Cl)c2cc(F)ccc2[nH]1 was tested, and the IC50 was > 50 µM (inactive). With CCCc1c2ccccc2nc2ccccc12 the IC50 was 8.26 µM. Cc1ccc(-c2c(C#N)c(N)nc3c2CCCC3)s1 was tested, and the IC50 was 25.7 µM. With Cc1ccc(S(=O)(=O)c2cc3c(=O)n4cccc(C)c4nc3n(C3CCCCC3)c2=N)cc1 the IC50 was 1.2 µM. With NC(N)=N/N=C/c1ccc(N(c2ccccc2)c2ccccc2)cc1 the IC50 was 16.8 µM. CCCOc1ccc(C2C(C(=O)OC)=CN(CCOC)C=C2C(=O)OC)cc1 showed an IC50 of 12.3 µM. O=c1[nH]c(Nc2ccccn2)cc2ccccc12 was tested, and the IC50 was > 50 µM (inactive). For O=c1cc(N2CCC3(CC2)OCCO3)[nH]c(=O)n1-c1ccc(Br)cc1, the IC50 was > 50 µM (inactive). For COC(=O)c1cc(NC(=O)c2ccc([N+](=O)[O-])cc2)c(=O)oc1C, the IC50 was > 50 µM (inactive). In the case of O=c1cc(N2CCc3ccccc3C2)[nH]c(=O)n1C1CCCCC1, the IC50 is reported as > 50 µM (inactive). Compound COc1cc([C@@H]2[C@H]3CN(C)CC=C3C(C#N)=C(N)C2(C#N)C#N)cc2c1OCO2 has an IC50 of 21 µM. With COC(=O)c1c(NC(NC(=O)c2ccccc2)(C(F)(F)F)C(F)(F)F)sc2c1CCN(C)C2 the IC50 was 35.8 µM. With CC(=O)N1CN2CN(C(C)=O)CC(C(=O)c3ccccc3)(C2)C1 the IC50 was > 50 µM (inactive). Cc1ccccc1-n1nc2c(c1NC(=O)c1cc3ccccc3oc1=O)CS(=O)(=O)C2 was tested, and the IC50 was > 50 µM (inactive). COc1ccc(-c2c(C)c3ccc(O)cc3oc2=O)cc1 gave an IC50 of 36.3 µM. For COC(=O)C1=CN(Cc2ccc(OC)c(OC)c2)C=C(C(=O)OC)C1c1cccc(O)c1, the IC50 was 14.3 µM. With C=CCn1c(N)c(C(=O)OC(C)CC)c2nc3ccccc3nc21 (stereo unspecified) the IC50 was 19.8 µM. With Cc1ccc2cc(CN(CC3CCCO3)C(=S)Nc3ccccc3)c(=O)[nH]c2c1C (stereo unspecified) the IC50 was > 50 µM (inactive). In the case of COc1ccccc1C1C(C(N)=O)=C(C)Nc2ncnn21 (stereo unspecified), the IC50 is reported as > 50 µM (inactive). For CCCC(C)c1nnc(NC(=O)C2CC(=O)N(c3ccc(OCC)cc3)C2)s1 (stereo unspecified), the IC50 was > 50 µM (inactive). With O=C(c1cccc(-c2ccccc2)c1)N1CC[C@@H](N2CCC(O)CC2)[C@H](O)C1 the IC50 was > 50 µM (inactive). O=C(CCN1CCC(c2ccc(Cl)s2)=N1)c1ccc(Cl)s1 was tested, and the IC50 was > 50 µM (inactive). For Oc1nc(Nc2ccc(F)cc2)sc1/C=C1\C=Nc2ccccc21, the IC50 was > 50 µM (inactive). For COc1cc2c(cc1OC)CN(Cc1cc(=O)oc3cc(C)c(Cl)cc13)CC2, the IC50 was > 50 µM (inactive). In the case of O=C(Nc1nonc1NC(=O)c1cccs1)c1cccs1, the IC50 is reported as > 50 µM (inactive). With O=C(Nc1nc2ccc(S(=O)(=O)N3CCCCC3)cc2s1)c1cccnc1 the IC50 was > 50 µM (inactive). COc1ccccc1C(=O)NC(=S)Nc1ccc(N2CCCC2)cc1 was tested, and the IC50 was > 50 µM (inactive). In the case of COc1ccc(Cn2c(=N)c(C(=O)NC3CCCCC3)cc3c(=O)n4ccccc4nc32)cc1, the IC50 is reported as 47.7 µM. COc1cccc(C(=O)c2cc3ccc(O)cc3oc2=O)c1 showed an IC50 of 26.9 µM. In the case of CCN(CC)CCCNC(=S)N(Cc1cccs1)Cc1cc2cc3c(cc2[nH]c1=O)OCCO3, the IC50 is reported as > 50 µM (inactive). With NNC(=O)c1cc2nc(-c3cccs3)cc(C(F)(F)F)n2n1 the IC50 was > 50 µM (inactive). In the case of COc1ccc2cc(CCN3C(=O)c4ccccc4C3=O)c(=O)[nH]c2c1, the IC50 is reported as > 50 µM (inactive). COc1ccc(C2NC(C(=O)O)Cc3c2[nH]c2ccccc32)cc1CN1CCN(c2ccc(F)cc2)CC1 (stereo unspecified) showed an IC50 of 7.68 µM. With CCOC(=O)C1(CC2CCCCO2)CCN(C(=O)Nc2ccc3c(c2)OCO3)CC1 (stereo unspecified) the IC50 was > 50 µM (inactive). In the case of C=CCn1c(SCC(=O)Nc2sccc2C(N)=O)nc2ccccc2c1=O, the IC50 is reported as > 50 µM (inactive). For COc1ccc(N=Cc2cc(Cc3ccccc3Cl)cc([N+](=O)[O-])c2O)cc1OC, the IC50 was > 50 µM (inactive). For CC1(C)CC(=O)C=C(Nc2ccc(S(N)(=O)=O)cc2)C1, the IC50 was > 50 µM (inactive). For CCC(CC)COC(=O)C1=C(C)NC(=O)NC1c1ccc(N(C)C)cc1 (stereo unspecified), the IC50 was > 50 µM (inactive). In the case of CCN(CCO)C(=S)Nc1cc(C(=O)OC)ccc1C(=O)OC, the IC50 is reported as > 50 µM (inactive). Cc1cccc(C2=NN(c3ccc(Br)cc3)[C@@H](C(=O)N3CCOC3=O)[C@@H]2c2ccc(F)cc2)c1 was tested, and the IC50 was 33.6 µM. For Cc1c(Br)c(=O)oc2c(Br)c(O)c(O)cc12, the IC50 was 26.3 µM. For CCCC(=O)NNc1c2ccccc2nc2ccccc12, the IC50 was > 50 µM (inactive). In the case of CCc1ccccc1NC(=O)/C(C#N)=C\c1ccc(Sc2ccccc2)o1, the IC50 is reported as > 50 µM (inactive). With Cn1nnnc1SCC(=O)Nc1nn(-c2ccccc2)nc1C(N)=O the IC50 was > 50 µM (inactive). In the case of Cc1ccc(S(=O)(=O)/C(C#N)=C/c2c(N3CCC(C(N)=O)CC3)nc3ccccn3c2=O)cc1, the IC50 is reported as > 50 µM (inactive). In the case of Cc1ccc(C(=O)NNC2CC(=O)N(c3ccc4c(c3)OCCO4)C2=O)cc1 (stereo unspecified), the IC50 is reported as > 50 µM (inactive). For N#Cc1cc2c(ccc3ccccc32)oc1=O, the IC50 was > 50 µM (inactive). O=C(CN1C2CCCC1CC(NC(=O)c1ccco1)C2)Nc1ccccc1C(F)(F)F (stereo unspecified) was tested, and the IC50 was > 50 µM (inactive). Cc1nc2ccccc2n1CC(=O)N1CC(=O)Nc2ccccc21 was tested, and the IC50 was > 50 µM (inactive). For COCCOC(=O)C1=C(C)NC(=O)NC1c1cccc2ccccc12 (stereo unspecified), the IC50 was > 50 µM (inactive). For Cc1ccc2nc(NCCNC(=O)c3ccccc3)c(C#N)cc2c1, the IC50 was 3.62 µM. Cc1cnc(C(=O)Nc2ccc(S(=O)(=O)N(C(C)C)C(C)C)cc2)cn1 was tested, and the IC50 was > 50 µM (inactive). With Cc1c(S(=O)(=O)N2CCCC(C(=O)O)C2)cnn1C (stereo unspecified) the IC50 was > 50 µM (inactive). For C=CCn1c(N)c(C(=O)OCCC)c2nc3ccccc3nc21, the IC50 was 26 µM. In the case of COc1ccccc1C(=O)c1cc2ccc(O)cc2oc1=O, the IC50 is reported as 5.1 µM. For CCN1CCN(Cc2c(O)c(Cl)cc3c(C)cc(=O)oc23)CC1, the IC50 was 33.4 µM.
